Measured values taken from US8563000B2, “Melanocortin receptor ligands modified with hydantoin” (Ipsen Pharma S.A.S., priority 2007, dated 2013).

Legend:
hMC4 [1] = target: T1, hMC4 (Homo sapiens, UniProt P32245); assay: Radioligand binding assay, [125I]-NDP-α-MSH, CHO-K1 membranes
T1 construct: expressed in transfected cells; host or cells: CHO-K1
Description: (§1) Cellular membranes used for the in vitro receptor binding assays were obtained from transgenic CHO-K1 cells stably expressing hMC-R receptor subtypes 1, 3, 4 or 5. […] The pellets were re-suspended in the same buffer and centrifuged at 50,000 g for 10 minutes at approximately 4° C. The washed pellets containing the cellular membranes were stored at approximately −80° C.
(§2) Filters were washed three times with 50 mM Tris-HCl at pH 7.4 at a temperature of approximately 0-4° C. and then assayed for radioactivity using a Packard Topcount® scintillation counter. Binding data were analyzed by computer-assisted non-linear regression analysis (XL fit; IDBS).

hMC3 [2] = target: T2, hMC3 (Homo sapiens, UniProt P41968); assay: as above
T2 construct: expressed in transfected cells; host or cells: CHO-K1
T2 sequence (P41968 whole entry): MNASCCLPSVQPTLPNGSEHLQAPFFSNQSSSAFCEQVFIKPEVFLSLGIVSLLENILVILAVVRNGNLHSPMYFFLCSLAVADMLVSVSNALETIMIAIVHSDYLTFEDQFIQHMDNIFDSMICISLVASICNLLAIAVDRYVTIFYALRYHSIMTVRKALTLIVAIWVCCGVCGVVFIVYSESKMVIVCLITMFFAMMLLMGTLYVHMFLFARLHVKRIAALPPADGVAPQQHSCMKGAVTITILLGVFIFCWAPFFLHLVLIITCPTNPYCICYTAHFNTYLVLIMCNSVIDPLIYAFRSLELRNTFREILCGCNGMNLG
Description: as §1, §2

hMC1 [3] = target: T3, hMC1 (Homo sapiens, UniProt Q01726); assay: as above
T3 construct: expressed in transfected cells; host or cells: CHO-K1
T3 sequence (Q01726 whole entry): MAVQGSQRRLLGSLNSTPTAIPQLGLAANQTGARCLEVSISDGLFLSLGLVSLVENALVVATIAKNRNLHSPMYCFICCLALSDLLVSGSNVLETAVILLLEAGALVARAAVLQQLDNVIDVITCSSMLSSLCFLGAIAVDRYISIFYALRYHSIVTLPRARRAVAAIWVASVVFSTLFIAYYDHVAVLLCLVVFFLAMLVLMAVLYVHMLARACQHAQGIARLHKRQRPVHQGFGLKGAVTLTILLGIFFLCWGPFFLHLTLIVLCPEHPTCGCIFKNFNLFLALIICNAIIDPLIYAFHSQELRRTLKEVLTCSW
Description: as §1, §2

hMC5 [4] = target: T4, hMC5 (Homo sapiens, UniProt P33032); assay: as above
T4 construct: expressed in transfected cells; host or cells: CHO-K1
T4 sequence (P33032 whole entry): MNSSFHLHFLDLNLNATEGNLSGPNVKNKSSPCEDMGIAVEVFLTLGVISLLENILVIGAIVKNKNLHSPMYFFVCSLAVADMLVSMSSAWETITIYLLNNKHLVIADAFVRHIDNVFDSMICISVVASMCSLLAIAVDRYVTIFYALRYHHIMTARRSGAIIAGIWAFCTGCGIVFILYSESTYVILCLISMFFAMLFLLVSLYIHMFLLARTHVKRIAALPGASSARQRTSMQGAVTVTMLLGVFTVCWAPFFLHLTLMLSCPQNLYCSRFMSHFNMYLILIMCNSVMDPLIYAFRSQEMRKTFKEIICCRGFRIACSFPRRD
Description: as §1, §2

hMC3 [5] = target: T2, hMC3; assay: Cyclic AMP bioassay (ECL), CHO-K1 cells expressing hMC3; assay type: cell-based; conditions: intracellular cAMP
Description: (§3) Intracellular cyclic AMP (cAMP) levels were determined by an electrochemiluminescence (ECL) assay (Meso Scale Discovery®, Gaithersburg, Md.; referred to hereinafter as “MSD”). […] Transgenic CHO-K1 cells stably expressing hMC receptor subtypes 1, 3, 4 or 5 were dispensed at a density of approximately 7,000 cells/well in 384-well Multi-Array® plates (MSD) containing integrated carbon electrodes and coated with anti-cAMP antibody. Increasing concentrations of the test compounds were added and the cells were incubated for approximately 40 minutes at approximately 37° C. […] At the end of the second incubation period read buffer (Tris-buffered solution containing an ECL co-reactant and Triton X-100 at ph 7.8) was added and the cAMP levels in the cell lysates were immediately determined by ECL detection with a Sector Imager 6000 Reader® (MSD). Data was analyzed using a computer-assisted non-linear regression analysis (XL fit; IDBS) and reported as either an EC50 value or a Kb value.

hMC4 [6] = target: T1, hMC4; assay: Cyclic AMP bioassay (ECL), CHO-K1 cells expressing hMC4; assay type: cell-based; conditions: intracellular cAMP
Description: as §3

hMC5 [7] = target: T4, hMC5; assay: Cyclic AMP bioassay (ECL), CHO-K1 cells expressing hMC5; assay type: cell-based; conditions: intracellular cAMP
Description: as §3

hMC1 [8] = target: T3, hMC1; assay: Cyclic AMP bioassay (ECL), CHO-K1 cells expressing hMC1; assay type: cell-based; conditions: intracellular cAMP
Description: as §3

T1 sequence (P32245 whole entry): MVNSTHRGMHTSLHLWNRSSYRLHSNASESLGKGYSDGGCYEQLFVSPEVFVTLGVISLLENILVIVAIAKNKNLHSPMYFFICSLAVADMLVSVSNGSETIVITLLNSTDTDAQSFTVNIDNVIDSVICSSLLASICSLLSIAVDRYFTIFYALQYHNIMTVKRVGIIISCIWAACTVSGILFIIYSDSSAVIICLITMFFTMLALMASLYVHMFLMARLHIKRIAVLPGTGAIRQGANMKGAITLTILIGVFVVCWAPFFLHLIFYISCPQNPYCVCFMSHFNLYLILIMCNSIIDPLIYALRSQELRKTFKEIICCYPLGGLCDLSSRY

Ki (hMC4 [1])	Ki (hMC3 [2])	Ki (hMC1 [3])	Ki (hMC5 [4])	EC50 (hMC3 [5])	EC50 (hMC4 [6])	EC50 (hMC5 [7])	EC50 (hMC1 [8])	SMILES
35.8 nM	2630 nM	9030 nM	1160 nM	–	–	–	–	N=C(N)NCCC[C@@H]1NC(=O)[C@@H](Cc2ccc3ccccc3c2)NC(=O)C2(Cc3ccccc3C2)N2C(=O)N[C@@H](CC(=O)NCCCC[C@@H](C(N)=O)NC(=O)[C@H](Cc3c[nH]c4ccccc34)NC1=O)C2=O [cyclo[Hydantoin(C(O)-(Asp-Aic))-D-2-Nal-Arg-Trp-Lys]-NH2]
45.2 nM	1920 nM	72.6 nM	–	22.3 nM	3.62 nM	–	–	C[C@@H]1C(=O)N[C@@H](Cc2cnc[nH]2)C(=O)N[C@H](Cc2ccccc2)C(=O)N[C@@H](CCCNC(=N)N)C(=O)N[C@@H](Cc2c[nH]c3ccccc23)C(=O)N[C@H](C(N)=O)CCCCNC(=O)CC[C@@H]2NC(=O)N1C2=O [cyclo[Hydantoin(C(O)-(Glu-D-Ala))-His-D-Phe-Arg-Trp-Lys]-NH2]
–	–	–	> 10000 nM	–	–	–	–	C[C@@H]1C(=O)N[C@@H](Cc2cnc[nH]2)C(=O)N[C@H](Cc2ccccc2)C(=O)N[C@@H](CCCNC(=N)N)C(=O)N[C@@H](Cc2c[nH]c3ccccc23)C(=O)N[C@H](C(N)=O)CNC(=O)C[C@@H]2NC(=O)N1C2=O [cyclo[Hydantoin(C(O)-(Asp-D-Ala))-His-D-Phe-Arg-Trp-Dap]-NH2]
52.4 nM	2840 nM	60.4 nM	–	39.2 nM	4.94 nM	–	–	C[C@@H]1C(=O)N[C@@H](Cc2cnc[nH]2)C(=O)N[C@H](Cc2ccccc2)C(=O)N[C@@H](CCCNC(=N)N)C(=O)N[C@@H](Cc2c[nH]c3ccccc23)C(=O)N[C@H](C(N)=O)CCCNC(=O)CC[C@@H]2NC(=O)N1C2=O [cyclo[Hydantoin(C(O)-(Glu-D-Ala))-His-D-Phe-Arg-Trp-Orn]-NH2]
4.97 nM	863 nM	16.4 nM	–	18.2 nM	0.182 nM	–	56.7 nM	C[C@@H]1C(=O)N[C@@H](Cc2cnc[nH]2)C(=O)N[C@H](Cc2ccccc2)C(=O)N[C@@H](CCCNC(=N)N)C(=O)N[C@@H](Cc2c[nH]c3ccccc23)C(=O)N[C@H](C(N)=O)CNC(=O)CC[C@@H]2NC(=O)N1C2=O [cyclo[Hydantoin(C(O)-(Glu-D-Ala))-His-D-Phe-Arg-Trp-Dap]-NH2]
–	–	–	–	21.8 nM	0.576 nM	1780 nM	14.5 nM	N=C(N)NCCC[C@@H]1NC(=O)[C@@H](Cc2ccccc2)NC(=O)[C@H](Cc2cnc[nH]2)NC(=O)[C@H](CCC(=O)O)NC(=O)[C@@H](N2C(=O)CNC2=O)CSSC[C@@H](C(N)=O)NC(=O)[C@H](Cc2c[nH]c3ccccc23)NC1=O [cyclo[Hydantoin(C(O)-(Gly-Cys))-Glu-His-D-Phe-Arg-Trp-Cys]-NH2]
–	–	200 nM	–	–	–	–	–	N=C(N)NCCC[C@@H]1NC(=O)[C@@H](Cc2ccc3ccccc3c2)NC(=O)[C@H](Cc2cnc[nH]2)N2C(=O)N[C@@H](CC(=O)NCCCC[C@@H](C(N)=O)NC(=O)[C@H](Cc3c[nH]c4ccccc34)NC1=O)C2=O [cyclo[Hydantoin(C(O)-(Asp-His))-D-2-Nal-Arg-Trp-Lys]-NH2]
266 nM	2760 nM	1280 nM	–	–	–	–	–	N=C(N)NCCC[C@@H]1NC(=O)[C@@H](Cc2ccc3ccccc3c2)NC(=O)C2(CCNCC2)N2C(=O)N[C@@H](CC(=O)NCCCC[C@@H](C(N)=O)NC(=O)[C@H](Cc3c[nH]c4ccccc34)NC1=O)C2=O [cyclo[Hydantoin(C(O)-(Asp-Apc))-D-2-Nal-Arg-Trp-Lys]-NH2]
7.81 nM	576 nM	37.7 nM	6400 nM	88.6 nM	4.5 nM	9300 nM	56.6 nM	C[C@@H]1C(=O)N[C@@H](Cc2cnc[nH]2)C(=O)N[C@H](Cc2ccccc2)C(=O)N[C@@H](CCCNC(=N)N)C(=O)N[C@@H](Cc2c[nH]c3ccccc23)C(=O)N[C@H](C(N)=O)CCCNC(=O)C[C@@H]2NC(=O)N1C2=O [cyclo[Hydantoin(C(O)-(Asp-D-Ala))-His-D-Phe-Arg-Trp-Orn]-NH2]
16.5 nM	1480 nM	2170 nM	451 nM	–	–	–	–	N=C(N)NCCC[C@@H]1NC(=O)[C@@H](Cc2ccc3ccccc3c2)NC(=O)C2(CCCCC2)N2C(=O)N[C@@H](CC(=O)NCCCC[C@@H](C(N)=O)NC(=O)[C@H](Cc3c[nH]c4ccccc34)NC1=O)C2=O [cyclo[Hydantoin(C(O)-(Asp-A6c))-D-2-Nal-Arg-Trp-Lys]-NH2]

The remaining lines, values behind:

SMILES	Ki (hMC4 [1])	Ki (hMC3 [2])	Ki (hMC1 [3])	Ki (hMC5 [4])	EC50 (hMC3 [5])	EC50 (hMC4 [6])	EC50 (hMC5 [7])	EC50 (hMC1 [8])
CC[C@H](C)[C@@H]1NC(=O)N([C@H]2CSSC[C@@H](C(N)=O)NC(=O)[C@H](Cc3c[nH]c4ccccc34)NC(=O)[C@H](CCCNC(=N)N)NC(=O)[C@@H](Cc3ccccc3)NC(=O)[C@H](Cc3cnc[nH]3)NC(=O)[C@@H](C)NC2=O)C1=O [cyclo[Hydantoin(C(O)-(Ile-Cys))-D-Ala-His-D-Phe-Arg-Trp-Cys]-NH2]	–	–	–	> 10000 nM	–	–	–	–
N=C(N)NCCC[C@@H]1NC(=O)[C@@H](Cc2ccc3ccccc3c2)NC(=O)C2(CC2)N2C(=O)N[C@@H](CC(=O)NCCCC[C@@H](C(N)=O)NC(=O)[C@H](Cc3c[nH]c4ccccc34)NC1=O)C2=O [cyclo[Hydantoin(C(O)-(Asp-A3c))-D-2-Nal-Arg-Trp-Lys]-NH2]	420 nM	1920 nM	7570 nM	2880 nM	–	–	–	–
N=C(N)NCCC[C@@H]1NC(=O)[C@@H](Cc2ccccc2)NC(=O)[C@H](Cc2cnc[nH]2)NC(=O)[C@H](CCC(=O)O)NC(=O)[C@@H](NC(=O)CN2C(=O)N[C@H](CCCNC(=N)N)C2=O)CSSC[C@@H](C(N)=O)NC(=O)[C@H](Cc2c[nH]c3ccccc23)NC1=O [Hydantoin(C(O)-(D-Arg-Gly))-cyclo(Cys-Glu-His-D-Phe-Arg-Trp-Cys)-NH2]	2.95 nM	124 nM	9.49 nM	2260 nM	17.1 nM	0.16 nM	2710 nM	18 nM
CCCC[C@@H]1NC(=O)N(CC(=O)N[C@H]2CSSC[C@@H](C(N)=O)NC(=O)[C@H](Cc3c[nH]c4ccccc34)NC(=O)[C@H](CCCNC(=N)N)NC(=O)[C@@H](Cc3ccccc3)NC(=O)[C@H](Cc3cnc[nH]3)NC(=O)[C@H](CCC(=O)O)NC2=O)C1=O [Hydantoin(C(O)-(Nle-Gly))-cyclo(Cys-Glu-His-D-Phe-Arg-Trp-Cys)-NH2]	–	–	–	–	–	–	> 10000 nM	–
C[C@H]1NC(=O)[C@@H](NC(=O)[C@@H](CCCNC(=N)N)N2C(=O)CNC2=O)CSSC[C@@H](C(N)=O)NC(=O)[C@H](Cc2c[nH]c3ccccc23)NC(=O)[C@H](CCCNC(=N)N)NC(=O)[C@@H](Cc2ccccc2)NC(=O)[C@H](Cc2cnc[nH]2)NC1=O [Hydantoin(C(O)-(Gly-D-Arg))-cyclo(Cys-D-Ala-His-D-Phe-Arg-Trp-Cys)-NH2]	–	–	–	–	11.6 nM	0.435 nM	9840 nM	7.53 nM
CCCC[C@@H](C(=O)N[C@H]1CSSC[C@@H](C(N)=O)NC(=O)[C@H](Cc2c[nH]c3ccccc23)NC(=O)[C@H](CCCNC(=N)N)NC(=O)[C@@H](Cc2ccccc2)NC(=O)[C@H](Cc2cnc[nH]2)NC(=O)[C@@H](C)NC1=O)N1C(=O)N[C@H](C)C1=O [Hydantoin(C(O)-(D-Ala-Nle))-cyclo(Cys-D-Ala-His-D-Phe-Arg-Trp-Cys)-NH2]	–	–	–	–	2.56 nM	1.47 nM	–	–
C[C@H]1NC(=O)[C@@H](NC(=O)CN2C(=O)N[C@H](C)C2=O)CSSC[C@@H](C(N)=O)NC(=O)[C@H](Cc2c[nH]c3ccccc23)NC(=O)[C@H](CCCNC(=N)N)NC(=O)[C@@H](Cc2ccccc2)NC(=O)[C@H](Cc2cnc[nH]2)NC1=O [Hydantoin(C(O)-(D-Ala-Gly))-cyclo(Cys-D-Ala-His-D-Phe-Arg-Trp-Cys)-NH2]	–	–	–	–	2.22 nM	0.309 nM	355 nM	4.7 nM
N=C(N)NCCC[C@@H]1NC(=O)[C@@H](Cc2ccccc2)NC(=O)[C@H](Cc2cnc[nH]2)NC(=O)[C@H](CCC(=O)O)NC(=O)[C@@H](NC(=O)[C@@H](CCCNC(=N)N)N2C(=O)CNC2=O)CSSC[C@@H](C(N)=O)NC(=O)[C@H](Cc2c[nH]c3ccccc23)NC1=O [Hydantoin(C(O)-(Gly-D-Arg))-cyclo(Cys-Glu-His-D-Phe-Arg-Trp-Cys)-NH2]	1.77 nM	78 nM	4.3 nM	4540 nM	10.3 nM	0.125 nM	7440 nM	12.9 nM
N=C(N)NCCC[C@@H]1NC(=O)[C@@H](Cc2ccc3ccccc3c2)NC(=O)C2(CCCC2)N2C(=O)N[C@@H](CC(=O)NCCCC[C@@H](C(N)=O)NC(=O)[C@H](Cc3c[nH]c4ccccc34)NC1=O)C2=O [cyclo[Hydantoin(C(O)-(Asp-A5c))-D-2-Nal-Arg-Trp-Lys]-NH2]	–	2390 nM	9940 nM	–	–	–	–	–
C[C@H]1NC(=O)[C@@H](NC(=O)CN2C(=O)N[C@H](CCCNC(=N)N)C2=O)CSSC[C@@H](C(N)=O)NC(=O)[C@H](Cc2c[nH]c3ccccc23)NC(=O)[C@H](CCCNC(=N)N)NC(=O)[C@@H](Cc2ccccc2)NC(=O)[C@H](Cc2cnc[nH]2)NC1=O [Hydantoin(C(O)-(D-Arg-Gly))-cyclo(Cys-D-Ala-His-D-Phe-Arg-Trp-Cys)-NH2]	–	–	–	–	23.2 nM	0.513 nM	3950 nM	11.5 nM
N=C(N)NCCC[C@@H]1NC(=O)[C@@H](Cc2ccccc2)NC(=O)[C@H](Cc2cnc[nH]2)NC(=O)[C@H](CCC(=O)O)NC(=O)[C@@H](NC(=O)CN2C(=O)CNC2=O)CSSC[C@@H](C(N)=O)NC(=O)[C@H](Cc2c[nH]c3ccccc23)NC1=O [Hydantoin(C(O)-(Gly-Gly))-cyclo(Cys-Glu-His-D-Phe-Arg-Trp-Cys)-NH2]	–	–	–	–	–	–	> 10000 nM	–
